The values below come from patent publication US20240190849A1, “AMINOPYRIMIDINE COMPOUNDS AND METHODS OF THEIR USE” (TYRA BIOSCIENCES, INC., priority 2021, published 2024).

One assay deals with T1, FGFR1 (Homo sapiens, UniProt P11362).
T1 construct: made in house; host or cells: E. coli derived from BL21, infected with T7 phage
In words: Kinase binding assay (kinase-tagged T7 phage, affinity beads, qPCR readout), FGFR1. The conditions noted are these: FGFR binding data. An outline of the steps: (§1)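 Dissociation constants were measured by bead-capture competition at 0.9% DMSO, room temperature, 1 hour. qPCR of eluted kinase supplied the signal.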

The next assay concerns the target T2, FGFR2 (Homo sapiens, UniProt P21802).
T2 construct: made in house; host or cells: E. coli derived from BL21, infected with T7 phage
In words: Kinase binding assay (kinase-tagged T7 phage, affinity beads, qPCR readout), FGFR2. The conditions noted are these: FGFR binding data. An outline of the steps: as §1

The target in a further assay is T3, FGFR3 (Homo sapiens, UniProt P22607).
T3 construct: made in house; host or cells: E. coli derived from BL21, infected with T7 phage
In words: Kinase binding assay (kinase-tagged T7 phage, affinity beads, qPCR readout), FGFR3. The conditions noted are these: FGFR binding data. An outline of the steps: as §1

The target in a further assay is T4, FGFR3 (V555M) (Homo sapiens, UniProt P22607, V555M).
T4 construct: made in house; host or cells: E. coli derived from BL21, infected with T7 phage
In words: Kinase binding assay (kinase-tagged T7 phage, affinity beads, qPCR readout), FGFR3 (V555M). Conditions: FGFR binding data. An outline of the steps: as §1

Assay [1] deals with RT112/84 (Bladder Cancer), FGFR3-TACC3 fusion. In words: Cancer cell viability assay (Cell Titer-Glo), RT112/84. The format is cell-based. The conditions noted are these: Homo sapiens, RT112/84 cells, 72 hours. The source says: (§2) RT112/84, UM-UC-14, SNU-16 and KG-1 Cancer Cell Line Cell Viability Assays
(§3) To detect the change of intracellular ATP by Cell Titer-Glo@ and to evaluate the inhibitory effect of the compounds on cancer cell lines by determining the in vitro IC50 value of the compounds.
(§4) Cell Titer-Glo@ 2.0 Luminescent cell viability assay reagent was purchased from Promega (Madison, WI). RT112/84, SNU-16, and KG-1 cell lines were purchased from American Type Culture Collection (Manassas, VA). UM-UC-14 cell line was purchased from Sigma (St. Louis, MO). RT112/84, UM-UC-14, SNU-16, and KG-1 cells were cultured in RPMI1640 media supplemented with 10% fetal bovine serum. Cultures were maintained at 37° C. in a humidified atmosphere of 5% CO2 and 95% air.
(§5) Cell Viability Assay Procedure: Cells were plated in 96-well clear bottom/white plates (Corning #3903) at 10,000 cells/well in 100 μl of media, incubated overnight. The next day, test compound DMSO stock solutions were made at 10 mM and 2 μM final concentration. Compounds were then added to cells in a 9-dose, […] dilution series starting at 30 μM with an HP 300e Digital Dispenser (each dose was applied in triplicate). DMSO was backfilled to each well up to 301 nL total volume of test compound+DMSO, and a total of 301 nL DMSO was added to a control/no test compound well in triplicate. The cells in cell culture plates were incubated with the compounds at 37° C. and 5% CO2 for 72 hours. Then 50 μl of Cell Titer Glo 2.0 reagent was added to each well of the cell culture plates. The contents were covered from light and mixed on an orbital shaker at room temperature for 10 min. Luminescence was recorded by a Synergy H1 Microplate Reader (Biotek, Winooski, VT). Cells were assessed as a percentage of DMSO only treated control cells. Curves were plotted and IC50 values were calculated using the GraphPad Prism 8 program based on a sigmoidal dose-response equation (4 parameter).

Assay [2] concerns UM-UC-14 (Bladder Cancer), FGFR3(S249C). In words: Cancer cell viability assay (Cell Titer-Glo), UM-UC-14. The format is cell-based. The conditions noted are these: UMUC14, UM-UC-14 cells, 72 hours.
Description: as §2, §3, §4, §5

In assay [3] the test system is SNU-16 (Gastric Carcinoma), FGFR2 amplification. In words: Cancer cell viability assay (Cell Titer-Glo), SNU-16. Conditions: Homo sapiens, SNU-16 cells, 72 hours, read-out: SNU16 FGFR2 (IC50 nM). The format is cell-based. In outline: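 Cells seeded at 10,000/well in RPMI1640 with 10% FBS, then exposed 72 h at 37° C. to a 9-point 10-fold dilution series from 30 μM, in triplicate. Viability read as ATP luminescence (CellTiter-Glo 2.0) as percent of DMSO control; IC50 from 4-parameter sigmoidal fit.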

T1 sequence (P11362 22-822): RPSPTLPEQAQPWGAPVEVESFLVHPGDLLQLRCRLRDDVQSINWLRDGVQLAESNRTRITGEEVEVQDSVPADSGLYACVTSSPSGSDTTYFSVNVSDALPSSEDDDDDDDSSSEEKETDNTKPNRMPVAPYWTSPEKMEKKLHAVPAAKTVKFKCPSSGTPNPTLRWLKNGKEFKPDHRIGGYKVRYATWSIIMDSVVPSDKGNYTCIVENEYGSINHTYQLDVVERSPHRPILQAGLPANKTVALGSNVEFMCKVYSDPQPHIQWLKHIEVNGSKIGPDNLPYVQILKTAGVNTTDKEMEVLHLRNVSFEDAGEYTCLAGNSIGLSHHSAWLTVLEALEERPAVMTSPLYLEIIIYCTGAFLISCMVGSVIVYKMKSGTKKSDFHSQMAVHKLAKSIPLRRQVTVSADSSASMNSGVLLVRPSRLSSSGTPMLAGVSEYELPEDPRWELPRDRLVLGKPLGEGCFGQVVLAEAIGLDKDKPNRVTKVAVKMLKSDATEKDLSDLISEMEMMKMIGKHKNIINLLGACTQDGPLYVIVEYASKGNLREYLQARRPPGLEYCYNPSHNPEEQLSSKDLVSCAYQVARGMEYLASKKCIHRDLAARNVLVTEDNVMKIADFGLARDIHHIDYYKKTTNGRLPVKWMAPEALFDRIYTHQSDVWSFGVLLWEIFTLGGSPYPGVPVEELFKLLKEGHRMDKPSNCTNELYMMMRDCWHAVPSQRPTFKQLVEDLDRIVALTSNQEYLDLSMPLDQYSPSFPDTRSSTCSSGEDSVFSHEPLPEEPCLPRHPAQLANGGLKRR
T2 sequence (P21802 22-821): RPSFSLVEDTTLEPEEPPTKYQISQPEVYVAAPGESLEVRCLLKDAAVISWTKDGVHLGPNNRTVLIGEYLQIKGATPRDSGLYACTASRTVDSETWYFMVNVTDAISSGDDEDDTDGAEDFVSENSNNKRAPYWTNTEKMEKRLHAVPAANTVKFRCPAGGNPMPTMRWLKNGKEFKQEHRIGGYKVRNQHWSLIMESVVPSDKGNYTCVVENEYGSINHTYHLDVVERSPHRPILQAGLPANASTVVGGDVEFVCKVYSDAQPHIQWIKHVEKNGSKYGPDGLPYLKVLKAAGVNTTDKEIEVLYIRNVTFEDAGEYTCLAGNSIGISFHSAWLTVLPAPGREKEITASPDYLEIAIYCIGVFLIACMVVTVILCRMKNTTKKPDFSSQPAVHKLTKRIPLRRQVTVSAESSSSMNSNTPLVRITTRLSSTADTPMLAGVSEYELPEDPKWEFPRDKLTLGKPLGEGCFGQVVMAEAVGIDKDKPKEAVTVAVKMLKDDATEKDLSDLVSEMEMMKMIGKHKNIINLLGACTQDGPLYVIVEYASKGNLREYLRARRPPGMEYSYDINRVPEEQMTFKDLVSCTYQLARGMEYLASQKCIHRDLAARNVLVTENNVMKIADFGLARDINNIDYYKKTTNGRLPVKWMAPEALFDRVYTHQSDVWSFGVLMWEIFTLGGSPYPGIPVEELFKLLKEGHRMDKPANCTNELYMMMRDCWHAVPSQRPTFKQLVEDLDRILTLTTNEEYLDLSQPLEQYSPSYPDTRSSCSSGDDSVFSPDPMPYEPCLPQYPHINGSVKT
T4 sequence (P22607 23-806 V555M): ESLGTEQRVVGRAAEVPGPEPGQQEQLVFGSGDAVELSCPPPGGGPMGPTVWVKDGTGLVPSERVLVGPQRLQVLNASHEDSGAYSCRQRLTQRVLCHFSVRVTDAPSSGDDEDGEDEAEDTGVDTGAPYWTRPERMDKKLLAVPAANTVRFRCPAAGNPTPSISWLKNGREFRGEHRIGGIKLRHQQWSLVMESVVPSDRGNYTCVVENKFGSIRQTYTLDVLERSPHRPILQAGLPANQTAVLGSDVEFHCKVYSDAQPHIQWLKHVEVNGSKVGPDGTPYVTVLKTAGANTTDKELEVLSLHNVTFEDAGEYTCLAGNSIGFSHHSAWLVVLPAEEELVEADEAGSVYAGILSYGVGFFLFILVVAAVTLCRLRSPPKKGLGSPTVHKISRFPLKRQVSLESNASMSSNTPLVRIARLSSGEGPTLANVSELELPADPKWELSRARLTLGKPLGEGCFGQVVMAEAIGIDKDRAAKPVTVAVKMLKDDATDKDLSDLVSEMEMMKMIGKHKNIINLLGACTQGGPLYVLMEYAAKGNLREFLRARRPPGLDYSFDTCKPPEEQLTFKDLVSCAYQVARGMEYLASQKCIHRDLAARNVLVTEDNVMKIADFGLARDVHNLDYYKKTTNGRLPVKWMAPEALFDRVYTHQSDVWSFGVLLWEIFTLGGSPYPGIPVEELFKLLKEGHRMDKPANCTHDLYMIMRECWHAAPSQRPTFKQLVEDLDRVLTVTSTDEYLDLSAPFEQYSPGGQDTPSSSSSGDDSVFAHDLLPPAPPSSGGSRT
T3 sequence (P22607 23-806): as the sequence (P22607 23-806 V555M) above, with M533V counted along it

Regarding `C=CC(=O)Nc1ccc2c(c1)c(C)cn2-c1nc(Nc2cn(C)cn2)ncc1C` [Example 36, N-[3-methyl-1-[5-methyl-2-[(1-methylimidazol-4-yl)amino]pyrimidin-4-yl]indol-5-yl]prop-2-enamide], the dissociation constant Kd at FGFR1, at FGFR2, at FGFR3 and at FGFR3 (V555M) was 0.1 to 100 nM throughout. For the same compound, the IC50 in assay [1] is 100 to 250 nM; in assay [2], 0.1 to 100 nM.
Consider `C=CC(=O)Nc1ccc2c(c1)c(C)cn2-c1nc(Nc2ccc(CN3CCOCC3)c(F)c2)ncc1Cl` [Example 68, N-[1-[5-chloro-2-[3-fluoro-4-(morpholinomethyl)anilino]pyrimidin-4-yl]-3-methyl-indol-5-yl]prop-2-enamide], for which the Kd on FGFR1, on FGFR2, at FGFR3 and at FGFR3 (V555M) was 0.1 to 100 nM throughout. The IC50 in assay [1] and in assay [2] was 0.1 to 100 nM throughout.
`C=CC(=O)Nc1ccc2c(c1)c(C)cn2-c1nc(Nc2ccnn2C)ncc1F` [Example 69, N-[1-[5-fluoro-2-[(2-methylpyrazol-3-yl)amino]pyrimidin-4-yl]-3-methyl-indol-5-yl]prop-2-enamide]: the Kd at FGFR1 fell in the range of 100 to 250 nM; at FGFR2, 0.1 to 100 nM; on FGFR3, 0.1 to 100 nM; on FGFR3 (V555M) it was 0.1 to 100 nM. Also, the IC50 in assay [1] and in assay [2] was 0.1 to 100 nM throughout.
For `C=CC(=O)Nc1ccc2c(c1)c(C)cn2-c1nc(Nc2cn(C)nc2C#N)ncc1Cl` [Example 70, N-[1-[5-chloro-2-[(3-cyano-1-methyl-pyrazol-4-yl)amino]pyrimidin-4-yl]-3-methyl-indol-5-yl]prop-2-enamide], the equilibrium dissociation constant (Kd) was in the range of 100 to 250 nM at FGFR1, 0.1 to 100 nM at FGFR2, 0.1 to 100 nM on FGFR3 and 0.1 to 100 nM on FGFR3 (V555M). Moreover, the IC50 in assay [1] lay in the range of 250 to 1000 nM.
With `C=CC(=O)Nc1ccc2c(c1)c(C)cn2-c1nc(Nc2cccc(CN3CCOCC3)c2)ncc1Cl` [Example 78, N-[1-[5-chloro-2-[3-(morpholinomethyl)anilino]pyrimidin-4-yl]-3-methyl-indol-5-yl]prop-2-enamide], the Kd on FGFR1, at FGFR2, at FGFR3 and at FGFR3 (V555M) was 0.1 to 100 nM throughout. For the same compound, the IC50 in assay [1] and in assay [3] was 0.1 to 100 nM in each case.
Turning to `C=CC(=O)Nc1ccc2c(c1)c(C)cn2-c1nc(Nc2cnn(CCO)c2)ncc1C` [Example 121, N-[1-[2-[[1-(2-hydroxyethyl)pyrazol-4-yl]amino]-5-methyl-pyrimidin-4-yl]-3-methyl-indol-5-yl]prop-2-enamide], the Kd at FGFR1, on FGFR2, on FGFR3 and at FGFR3 (V555M) was 0.1 to 100 nM throughout. The IC50 in assay [1], in assay [2] and in assay [3] was 0.1 to 100 nM each time.
Turning to `C=CC(=O)Nc1ccc2c(c1)c(CC)cn2-c1nc(Nc2cnn(C)c2)ncc1C` [Example 136, N-[3-ethyl-1-[5-methyl-2-[(1-methylpyrazol-4-yl)amino]pyrimidin-4-yl]indol-5-yl]prop-2-enamide], the Kd at FGFR1, at FGFR2, on FGFR3 and on FGFR3 (V555M) was 0.1 to 100 nM each time. The IC50 in assay [1], in assay [2] and in assay [3] was 0.1 to 100 nM each time.
Regarding `C=CC(=O)Nc1ccc2c(c1)c(C)cn2-c1nc(Nc2cnn(CCCO)c2)ncc1F` [Example 160, N-[1-[5-fluoro-2-[[1-(3-hydroxypropyl)pyrazol-4-yl]amino]pyrimidin-4-yl]-3-methyl-indol-5-yl]prop-2-enamide], the Kd on FGFR1, at FGFR2, on FGFR3 and at FGFR3 (V555M) was 0.1 to 100 nM throughout. Also, the IC50 in assay [1], in assay [2] and in assay [3] was 0.1 to 100 nM in each case.
For the compound `C=CC(=O)Nc1ccc2c(c1)c(C)cn2-c1nc(Nc2cnn(CCOC)c2)ncc1F` [Example 163, N-[1-[5-fluoro-2-[[1-(2-methoxyethyl)pyrazol-4-yl]amino]pyrimidin-4-yl]-3-methyl-indol-5-yl]prop-2-enamide], the Kd on FGFR1, at FGFR2, on FGFR3 and on FGFR3 (V555M) was 0.1 to 100 nM each time. For the same compound, the IC50 in assay [1], in assay [2] and in assay [3] was 0.1 to 100 nM each time.
Regarding `C=CC(=O)Nc1ccc2c(c1)c(C)cn2-c1nc(Nc2cn(C)nc2C)ncc1F` [Example 167, N-[1-[2-[(1,3-Dimethylpyrazol-4-yl)amino]-5-fluoro-pyrimidin-4-yl]-3-methyl-indol-5-yl]prop-2-enamide], the Kd on FGFR1, at FGFR2, on FGFR3 and on FGFR3 (V555M) was 0.1 to 100 nM throughout. The IC50 in assay [1], in assay [2] and in assay [3] was 0.1 to 100 nM throughout.
For `C=CC(=O)Nc1ccc2c(c1)c(C)cn2-c1nc(Nc2cnn(C[C@@H](C)O)c2)ncc1F` [Example 185, N-[1-[5-Fluoro-2-[[1-[(2R)-2-hydroxypropyl]pyrazol-4-yl]amino]pyrimidin-4-yl]-3-methyl-indol-5-yl]prop-2-enamide], the Kd at FGFR1, at FGFR2, on FGFR3 and on FGFR3 (V555M) was 0.1 to 100 nM throughout. The IC50 in assay [1] and in assay [3] was 0.1 to 100 nM throughout.
For `C=CC(=O)Nc1ccc2c(c1)c(C)cn2-c1nc(Nc2cnn(C[C@H](C)O)c2)ncc1F` [Example 186, N-[1-[5-Fluoro-2-[[1-[(2S)-2-hydroxypropyl]pyrazol-4-yl]amino]pyrimidin-4-yl]-3-methyl-indol-5-yl]prop-2-enamide], the Kd at FGFR1, on FGFR2, on FGFR3 and on FGFR3 (V555M) was 0.1 to 100 nM in each case. In addition, the IC50 in assay [1] and in assay [3] was 0.1 to 100 nM throughout.
`C=CC(=O)Nc1ccc2c(c1)c(C)cn2-c1nc(Nc2cn(C)nc2C)ncc1C` [Example 187, N-[1-[2-[(1,3-dimethylpyrazol-4-yl)amino]-5-methyl-pyrimidin-4-yl]-3-methyl-indol-5-yl]prop-2-enamide]: the Kd at FGFR1, on FGFR2, on FGFR3 and at FGFR3 (V555M) was 0.1 to 100 nM each time. Further, the IC50 in assay [1] and in assay [3] was 0.1 to 100 nM in each case.
In the case of `C=CC(=O)Nc1ccc2c(-c3ccnc(Nc4cnn(C(F)F)c4)n3)cn(C)c2c1` [Example 188, N-[3-[2-[[1-(difluoromethyl)pyrazol-4-yl]amino]pyrimidin-4-yl]-1-methyl-indol-6-yl]prop-2-enamide], the dissociation constant Kd at FGFR1, on FGFR2, at FGFR3 and at FGFR3 (V555M) was 0.1 to 100 nM in each case. Further, the IC50 in assay [1] and in assay [2] was 0.1 to 100 nM throughout.
As to `C=CC(=O)Nc1ccc2c(-c3ccnc(Nc4cnn(C5CCC5)c4)n3)cn(C)c2c1` [Example 189, N-[3-[2-[(1-cyclobutylpyrazol-4-yl)amino]pyrimidin-4-yl]-1-methyl-indol-6-yl]prop-2-enamide], the Kd at FGFR1, at FGFR2, on FGFR3 and at FGFR3 (V555M) was 0.1 to 100 nM throughout. Further, the IC50 in assay [1] and in assay [2] was 0.1 to 100 nM in each case.
